Source: patent US5032398A, “Selective modification of the catalytic subunit of pertussis toxin” (priority 1986, dated 1991)

Experiments:
pertussis toxin [1] = target: T1, pertussis toxin (Bordetella pertussis, UniProt P04977); test: NADase activity of pertussis toxin after activation and treatment with alkylating reagent (Example One); format: biochemical
Source text: The ADP-ribosylating activity of the pertussis toxin can be detected as a nicotinamide-adenine dinucleotide-glycohydrolase (NADase) activity, which can be conveniently assayed through the use of [nicotinamide-^14 C] or [nicotinamide-^3 H] NAD. NAD consists of ADP-ribose linked to nicotinimide, and thus the extent of the release of ADP-ribose from NAD is an indication of the ability of the toxin to cause ill effects. In conducting this assay of the hydrolysis of labelled NAD, ion-exchange column chromatography was employed to resolve the product from the substrate according to the method described by Moss et al., J. Biol. Chem. 258, 11879 (1983) which is incorporated herein by reference. However, several modifications to this method were employed. First, a QAE-Sephadex resin was employed, as was a [nicotinamide-^3 H] NAD. Specifically, a 2 ml QAE-Sephadex column was first washed with 10 ml 1NHCl, followed by 10 ml H2 O, 20 ml 0.5M Tris-HCl pH 7.0, and 40 ml H2 O. [^3 H] NAD was applied, and the column washed with 20 ml water to elute impurities. Purified [^3 H] NAD was eluted with 0.25M NaCl, and stored in small aliquots at -70° C. The purified [^3 H] NAD contributed 50 mM NaCl (final concentration) to the NADase assays.
Before the end of the reaction, 2 ml QAE-Sephadex columns were treated with 10 ml 0.1M imidazole-HCl pH 7.0 with 1.0M NaCl, followed by 40 ml water. The NADase reaction (in 100 μl) was terminated by adding 0.85 ml of ice-cold water, and the entire 0.95 ml was pipetted into a treated QAE column. The labelled nicotinamide was then eluted with 3 ml of water directly into a scintillation vial and counted. The absorbed labelled NAD was then eluted into radioactive waste with 10 ml 0.1M imidazole-HCl pH 7.0 with 1.0M NaCl, and the column stored partially immersed in a water bath until the next assay.
In order to determine if any active toxin remained after the inactivation, a large excess of sulfhydryl reductant was added to each tube to scavenge unreacted sulfhydryl reagent. The NADase activity of the preparation was then measured. The three incubations were performed under a nitrogen atmosphere using degassed solutions to prevent oxidation of sulfhydryl groups which would prevent the sulfhydryl reagent from modifying the sulfhydryl group.
The pertussis toxin in the Examples comprised 50 μg of the toxin in a 500 μl solution of 10 mM sodium phosphate-50 mM sodium chloride-water solution having a pH of 7. The enzymatic activity was detected as the hydrolysis of nicotinamide labelled NAD and ion-exchange column chromatography to resolve the product from the substrate. Unless otherwise noted, the assay was initiated by adding 0.5 to 2.5 μg of the toxin to a reaction mixture for a final volume of 100 μl. The NADase reaction was terminated by adding 0.85 ml of ice-cold water. The entire 0.95 ml was then pipetted into a QAE-Sephadex column (chloride form) and the labelled nicotinamide eluted with 3 ml of water directly into a scintillation vial and counted. […] One unit of NADase activity is defined as 1 pmol NAD hydrolyzed per hour.
One-half microgram of pertussis toxin was incubated for thirty minutes at […] in 100 mM Tris-HCl (pH 8.0), with or without activators, in a volume of 50 μl. When present, ATP and pyrophosphate were present in a concentration of 2 mM, CHAPS at 2 weight percent, and DTT in a concentration of either 2 mM (trial 1) or 1 mM (trial 2). 10 μl of water with or without iodoacetate or N-ethylmaleimide was then added and a second incubation conducted at 30° C. for either thirty minutes (trial 1) or fifteen minutes (trial 2). After this incubation, 10 μl of 200 mM DTT was added to each tube, and the tubes were incubated for thirty (trial 1) or sixty minutes (trial 2) on ice to scavenge the iodoacetate or N-ethylmaleimide.

pertussis toxin [2] = target: T1, pertussis toxin; test: Inactivation of NADase activity by iodoacetate after different activator combinations (Example Seven); format: biochemical
Procedure: Pertussis toxin was incubated first at 37° C. for fifteen minutes in […] buffer A (100 mM Tris-HCl, pH 8.0 with 1 mM NaEDTA). EDTA was added to chelate divalent cations, which may promote oxidation of free --SH groups. During this incubation, DTT and ATP were present in concentrations of 1 mM each, and CHAPS was present in a concentration of 1 weight percent. Labelled iodoacetate was then added ([…], 12.5 mM), and the tube incubated on ice for twenty hours. The sample was then mixed with sodium dodecylsulfate and β-mercaptoethanol, heated at 95° C. for one minute, and electrophoresed. After electrophoresis, the gel was fixed, treated with Fluorohance (Research Products International), dried and used to expose x-ray film.
Pertussis toxin was incubated at 37° C. for fifteen minutes as described in Example Six, and then a second incubation was begun by adding 10 μl buffer A with or without 12.5 mM iodoacetate, mixing the contents of the tube and lowering the temperature to 30° C. After fifteen minutes, the tubes were shifted to an ice bath for ten minutes. A third incubation was then begun by adding 10 μl buffer A containing 200 mM DTT to those tubes containing iodoacetate to scavenge the iodoacetate. To those tubes not containing iodoacetate during the second incubation, a mixture of 200 mM DTT and 12.5 mM iodoacetate in buffer A, previously incubated for an hour on ice, was added. The third incubation was continued for one hour on ice.
The contents of each tube were then assayed for NADase activity by adding 40 μl of a reaction mix consisting of buffer A containing carbon-14 labelled NAD (final concentration in the 100 μl final volume was 25 μM), and 50 mM sodium chloride. Different reaction mixtures with various additions were used, so that in all tubes the final concentration of ATP was 1 mM and CHAPS was 1 weight percent. The assay was conducted at 37° C. for sixty minutes, and the released labelled nicotinimide was isolated and counted. The iced controls were formed by incubating pertussis toxin (1 μg) on ice in 10 mM sodium phosphate (pH 7) and 50 mM sodium chloride during the first three incubations. […] The first three incubations were done under a nitrogen atmosphere using degassed conditions, and the second and third incubations were done under subdued light.

T1 sequence (P04977 35-269 limits assumed): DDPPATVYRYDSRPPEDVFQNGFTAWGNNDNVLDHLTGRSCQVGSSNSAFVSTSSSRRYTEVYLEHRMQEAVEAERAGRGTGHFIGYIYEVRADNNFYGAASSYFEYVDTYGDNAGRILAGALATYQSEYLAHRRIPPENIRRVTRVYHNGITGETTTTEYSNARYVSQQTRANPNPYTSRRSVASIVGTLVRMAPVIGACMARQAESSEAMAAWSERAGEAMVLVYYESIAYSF

## O=C(O)CI [iodoacetate]
Pertussis toxin [1]; first incubation: DTT 1 mM, CHAPS 2%, ATP 2 mM, Experiment #2, second incubation 15 min at 30° C, 25 μM NAD
  NADase activity (%) of the activity of toxin treated the same way without alkylating agent: 3%
Pertussis toxin [1]; first incubation: DTT 1 mM, CHAPS 2%, pyrophosphate 2 mM, Experiment #2, second incubation 15 min at 30° C, 25 μM NAD
  NADase activity (%) of the activity of toxin treated the same way without alkylating agent: 31%
Pertussis toxin [1]; first incubation: DTT 2 mM, CHAPS 2%, ATP 2 mM, Experiment #1, second incubation 30 min at 30° C, 125 μM NAD
  NADase activity (%) of the activity of toxin treated the same way without alkylating agent: 4%
Pertussis toxin [1]; first incubation: DTT 2 mM, CHAPS 2%, pyrophosphate 2 mM, Experiment #1, second incubation 30 min at 30° C, 125 μM NAD
  NADase activity (%) of the activity of toxin treated the same way without alkylating agent: 28%
Pertussis toxin [1]; first incubation: none, Experiment #1, second incubation 30 min at 30° C, 125 μM NAD
  NADase activity (%) of the activity of toxin treated the same way without alkylating agent: 62%
Pertussis toxin [1]; first incubation: none, Experiment #2, second incubation 15 min at 30° C, 25 μM NAD
  NADase activity (%) of the activity of toxin treated the same way without alkylating agent: 87%
Pertussis toxin [2]; at 30° C.
  Time to inactivate toxin: within about fifteen minutes
Pertussis toxin [2]; first incubation: ATP
  Percent NADase activity relative to no addition to second incubation: 153
Pertussis toxin [2]; first incubation: ATP, CHAPS
  Percent NADase activity relative to no addition to second incubation: 80
Pertussis toxin [2]; first incubation: ATP, DTT
  Percent NADase activity relative to no addition to second incubation: 107
Pertussis toxin [2]; first incubation: ATP, DTT, CHAPS
  Percent NADase activity relative to no addition to second incubation: 14
Pertussis toxin [2]; first incubation: CHAPS
  Percent NADase activity relative to no addition to second incubation: 108
Pertussis toxin [2]; first incubation: DTT
  Percent NADase activity relative to no addition to second incubation: 123
Pertussis toxin [2]; first incubation: DTT, CHAPS
  Percent NADase activity relative to no addition to second incubation: 84
Pertussis toxin [2]; first incubation: none
  Percent NADase activity relative to no addition to second incubation: 87
